This is an account of results in the supplement of paper PMC7600603.

Experiment [1] concerns DLD1 NRF2-WT. The following applies: 72 h; CellTiter-Glo viability. Summed up:
(§1)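 DLD1 colorectal cancer cells, an isogenic pair either NRF2 wild-type or carrying a CRISPR gain-of-function, were cultured in DMEM with 10% FBS and treated in 384-well plates with library compounds at 5 concentrations across a 10,000-fold range. CellTiter-Glo viability was read on a Pherastar FS reader after 72 h and normalised to vehicle wells and 100-μM positive-control wells. Four-parameter logistic dose-response fits were applied. EC50 and drug sensitivity score, a normalised area under the curve, were taken from these fits.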

Experiment [2] deals with DLD1 NRF2-GOF. The experiment is described as follows: TC50 cytotoxicity; higher = less toxic. The following applies: 72 h; CellTox Green cytotoxicity. Summed up: (§2)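 After growth in DMEM with 10% FBS, NRF2 wild-type and CRISPR-edited isogenic DLD1 cells were seeded in 384-well plates and given library compounds at 5 concentrations across a 10,000-fold range. Fluorescence from CellTox Green was taken on a Pherastar FS reader after 72 h and normalised against vehicle wells and 100-μM positive-control wells. From logistic dose-response fits of cytotoxicity came the TC50 and the drug sensitivity score, a normalised area under the curve.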

The test system of experiment [3] is DLD1 NRF2-WT. In words: TC50 cytotoxicity; higher = less toxic. The following applies: 72 h; CellTox Green cytotoxicity. An outline of the steps:
as §2

In experiment [4] the test system is DLD1 NRF2-GOF. In words: drug sensitivity score (DSS) cytotoxicity (DSS score); higher = more toxic; extreme values may be limits of the assay. The following applies: 72 h; CellTox Green cytotoxicity. An outline of the steps: as §2
In experiment [5] the test system is DLD1 NRF2-WT. Described as above. The following applies: 72 h; CellTox Green cytotoxicity. An outline of the steps: as §2
The test system of experiment [6] is DLD1 NRF2-WT. In words: drug sensitivity score (DSS) viability (DSS score); higher = more sensitive; extreme values may be limits of the assay. The following applies: 72 h; CellTiter-Glo viability. Summed up: as §1
On the technique in general: ATP-based viability assays read luminescence as a measure of living cells.

`CC1=NN(c2ccc(C(=O)O)cc2)C(=O)C1=Cc1ccc(-c2cc(C)c(C)cc2[N+](=O)[O-])o1` [C646] had an EC50 viability with DLD1 NRF2-WT [1] of 5.03 µM. Also, the TC50 cytotoxicity in the experiment on DLD1 NRF2-GOF [2] and in the experiment on DLD1 NRF2-WT [3] was more than 25 µM each time. The drug sensitivity score was determined as 0 in the experiment on DLD1 NRF2-GOF [4], 0 in the experiment on DLD1 NRF2-WT [5] and 2.8 with DLD1 NRF2-WT [6].
The compound `CC[C@]1(O)C[C@H]2CN(CCc3c([nH]c4ccccc34)[C@@](C(=O)OC)(c3cc4c(cc3OC)N(C)[C@H]3[C@@](O)(C(=O)OC)[C@H](OC(C)=O)[C@]5(CC)C=CCN6CC[C@]43[C@@H]65)C2)C1` [Vinblastine] registered an EC50 viability in the experiment with DLD1 NRF2-WT [1] of 0.0052 µM. This compound yielded a TC50 cytotoxicity with DLD1 NRF2-GOF [2] of more than 1 µM. Further, the drug sensitivity score with DLD1 NRF2-GOF [4] stood at 3.4; in the experiment on DLD1 NRF2-WT [5], 4.1; with DLD1 NRF2-WT [6] it was 22.5.
`CC1(C)CCC(c2ccc(Cl)cc2)=C(CN2CCN(c3ccc(C(=O)NS(=O)(=O)c4ccc(N[C@H](CCN5CCOCC5)CSc5ccccc5)c(S(=O)(=O)C(F)(F)F)c4)cc3)CC2)C1` [Navitoclax] yielded an EC50 viability in the experiment on DLD1 NRF2-WT [1] of 3.95 µM. Moreover, the figures for the TC50 cytotoxicity in the experiment with DLD1 NRF2-GOF [2] and in the experiment on DLD1 NRF2-WT [3] were 1.89 µM and 1.55 µM, respectively. Besides, the results for the drug sensitivity score in the experiment with DLD1 NRF2-GOF [4], in the experiment on DLD1 NRF2-WT [5] and with DLD1 NRF2-WT [6] were 2.1, 4 and 2.1, respectively.
In the experiment on DLD1 NRF2-WT [1], `Cn1c(Nc2ccc(C(F)(F)F)cc2)nc2cc(Oc3ccnc(-c4ncc(C(F)(F)F)[nH]4)c3)ccc21` [NVP-RAF265] returned an EC50 viability of 0.191 µM. The drug sensitivity score with DLD1 NRF2-WT [6] was found to be 3.2.
Taken in the same sequence, the figures for `C[C@@H](Oc1cc(-c2cnn(C3CCNCC3)c2)cnc1N)c1c(Cl)ccc(F)c1Cl` [Crizotinib] were more than 1 µM and 0.
For the compound `COc1ccc(CCc2nc3cc(-c4c(C)noc4C)ccc3n2C[C@H](C)N2CCOCC2)cc1Cl` [SGC-CBP30], the EC50 viability in the experiment with DLD1 NRF2-WT [1] was 9.91 µM. Moreover, the TC50 cytotoxicity in the experiment with DLD1 NRF2-GOF [2] and in the experiment on DLD1 NRF2-WT [3] was more than 25 µM in each case. Moreover, the drug sensitivity score with DLD1 NRF2-GOF [4] was 0.2; with DLD1 NRF2-WT [5], 0.8; with DLD1 NRF2-WT [6], 2.2.
Compound `Nc1ccccc1NC(=O)c1ccc(CNc2nccc(-c3cccnc3)n2)cc1` [Mocetinostat] returned an EC50 viability with DLD1 NRF2-WT [1] of 3.29 µM. In addition, the TC50 cytotoxicity with DLD1 NRF2-GOF [2] and in the experiment on DLD1 NRF2-WT [3] was more than 10 µM throughout. Also, the drug sensitivity score is 0 with DLD1 NRF2-GOF [4], 1.6 in the experiment with DLD1 NRF2-WT [5] and 4 in the experiment with DLD1 NRF2-WT [6].
The compound `CC(C)(C)c1cc(NC(=O)Nc2ccc(Oc3ccnc4[nH]c(=O)cnc34)cc2F)n(-c2ccccc2)n1` returned an EC50 viability with DLD1 NRF2-WT [1] of 3.11 µM. The TC50 cytotoxicity in the experiment on DLD1 NRF2-GOF [2] and with DLD1 NRF2-WT [3] was more than 25 µM in each case. Further, the drug sensitivity score in the experiment with DLD1 NRF2-GOF [4] came to 0; with DLD1 NRF2-WT [5], 1.1; in the experiment with DLD1 NRF2-WT [6], 9.8.
In turn, `CN1CCC(CNc2ccc3ncc(-c4cccc(OC(F)(F)F)c4)n3n2)CC1` [SGI-1776] displayed an EC50 viability in the experiment on DLD1 NRF2-WT [1] of 3.47 µM. Further, the TC50 cytotoxicity in the experiment on DLD1 NRF2-GOF [2] was determined as 3.14 µM; in the experiment on DLD1 NRF2-WT [3], 2.68 µM. Moreover, the results for the drug sensitivity score with DLD1 NRF2-GOF [4], in the experiment with DLD1 NRF2-WT [5] and in the experiment on DLD1 NRF2-WT [6] were 3.1, 4.5 and 5, respectively.
Turning to `CO[C@H](C(=O)[C@@H](O)[C@@H](C)O)[C@@H]1Cc2cc3cc(O[C@H]4C[C@@H](O[C@H]5C[C@@H](O)[C@H](O)[C@@H](C)O5)[C@@H](O)[C@@H](C)O4)c(C)c(O)c3c(O)c2C(=O)[C@H]1O[C@H]1C[C@@H](O[C@H]2C[C@@H](O[C@H]3C[C@](C)(O)[C@H](O)[C@@H](C)O3)[C@H](O)[C@@H](C)O2)[C@H](O)[C@@H](C)O1` [Plicamycin], the EC50 viability with DLD1 NRF2-WT [1] came out at 0.119 µM. The TC50 cytotoxicity in the experiment on DLD1 NRF2-GOF [2] and in the experiment with DLD1 NRF2-WT [3] was more than 10 µM in each case. The drug sensitivity score in the experiment with DLD1 NRF2-GOF [4] turned out to be 0; in the experiment with DLD1 NRF2-WT [5], 1.7; in the experiment with DLD1 NRF2-WT [6], 21.8.
In turn, `CNC(=O)c1ccccc1Sc1ccc2c(/C=C/c3ccccn3)n[nH]c2c1` [Axitinib] yielded an EC50 viability with DLD1 NRF2-WT [1] of 3.39 µM. The TC50 cytotoxicity in the experiment on DLD1 NRF2-GOF [2] and in the experiment on DLD1 NRF2-WT [3] was more than 10 µM throughout. Moreover, the drug sensitivity score was found to be 0 in the experiment on DLD1 NRF2-GOF [4], 0.3 with DLD1 NRF2-WT [5] and 2.4 in the experiment with DLD1 NRF2-WT [6].
In turn, `O=C(O)C(=O)O.[NH-][C@@H]1CCCC[C@H]1[NH-].[Pt+2]` [Oxaliplatin] yielded an EC50 viability in the experiment with DLD1 NRF2-WT [1] of 25.3 µM. In the experiment with DLD1 NRF2-WT [6], this compound gave a drug sensitivity score of 3.
As to `O=C(Nc1cc(Oc2cc(F)c(NC(=O)C3(C(=O)Nc4ccc(F)cc4)CC3)cc2F)ccn1)C1CC1` [Altiratinib], the EC50 viability with DLD1 NRF2-WT [1] was 3.43 µM. Further, the TC50 cytotoxicity in the experiment on DLD1 NRF2-GOF [2] and with DLD1 NRF2-WT [3] was more than 10 µM in each case. Besides, the drug sensitivity score in the experiment with DLD1 NRF2-GOF [4] stood at 0.2; with DLD1 NRF2-WT [5], 0.6; in the experiment on DLD1 NRF2-WT [6] it was 5.1.
As for `CC/C(=C(\c1ccccc1)c1ccc(OCCN(C)C)cc1)c1ccccc1` [Tamoxifen], the EC50 viability in the experiment with DLD1 NRF2-WT [1] worked out at 4.36 µM. In addition, the TC50 cytotoxicity with DLD1 NRF2-GOF [2] and with DLD1 NRF2-WT [3] was more than 10 µM in each case. In addition, the drug sensitivity score worked out at 0 in the experiment with DLD1 NRF2-GOF [4], 0 in the experiment with DLD1 NRF2-WT [5] and 2 with DLD1 NRF2-WT [6].
For the compound `CC[C@H](NC(=O)[C@H](C)NC)C(=O)N1C[C@@H](O)C[C@H]1Cc1c(-c2[nH]c3cc(F)ccc3c2C[C@@H]2C[C@H](O)CN2C(=O)[C@H](CC)NC(=O)[C@H](C)NC)[nH]c2cc(F)ccc12` [Birinapant], the EC50 viability in the experiment with DLD1 NRF2-WT [1] was more than 1 µM. In addition, the TC50 cytotoxicity with DLD1 NRF2-GOF [2] and in the experiment with DLD1 NRF2-WT [3] was more than 1 µM throughout. Moreover, the drug sensitivity score with DLD1 NRF2-GOF [4] came out at 0; in the experiment on DLD1 NRF2-WT [5], 0; with DLD1 NRF2-WT [6], 0.1.
`COc1cc(Nc2ncc(F)c(Nc3ccc4c(n3)NC(=O)C(C)(C)O4)n2)cc(OC)c1OC` [Tamatinib]: the EC50 viability in the experiment on DLD1 NRF2-WT [1] is more than 10 µM. Further, the TC50 cytotoxicity in the experiment on DLD1 NRF2-GOF [2] and in the experiment on DLD1 NRF2-WT [3] was more than 10 µM throughout. The drug sensitivity score in the experiment with DLD1 NRF2-GOF [4] turned out to be 0; with DLD1 NRF2-WT [5] it was 0; in the experiment with DLD1 NRF2-WT [6], 1.
Consider `COc1cc2c(cc1OC(C)C)[C@H](c1ccc(Cl)cc1)N(c1ccc(N(C)C[C@H]3CC[C@H](N4CCN(C)C(=O)C4)CC3)cc1)C(=O)C2` [NVP-CGM097], for which, in the experiment with DLD1 NRF2-WT [1], the EC50 viability worked out at 2.38 µM. The TC50 cytotoxicity in the experiment on DLD1 NRF2-GOF [2] and in the experiment on DLD1 NRF2-WT [3] was more than 25 µM in each case. The drug sensitivity score in the experiment with DLD1 NRF2-GOF [4] is 0; with DLD1 NRF2-WT [5] it was 0; in the experiment with DLD1 NRF2-WT [6], 3.4.
Turning to `CCC(C)n1ncn(-c2ccc(N3CCN(c4ccc(OCC5COC(Cn6cncn6)(c6ccc(Cl)cc6Cl)O5)cc4)CC3)cc2)c1=O` (configuration not stated) [Itraconazole], the EC50 viability in the experiment with DLD1 NRF2-WT [1] is more than 5 µM. Further, the TC50 cytotoxicity in the experiment on DLD1 NRF2-GOF [2] and with DLD1 NRF2-WT [3] was more than 5 µM throughout. Moreover, the drug sensitivity score in the experiment with DLD1 NRF2-GOF [4] worked out at 0; in the experiment with DLD1 NRF2-WT [5], 0; in the experiment on DLD1 NRF2-WT [6] it was 0.4.
`C[C@@H](Oc1cc(-n2cnc3ccc(CN4CCN(C)CC4)cc32)sc1C(N)=O)c1ccccc1C(F)(F)F` had an EC50 viability with DLD1 NRF2-WT [1] of 0.0033 µM. In addition, the TC50 cytotoxicity in the experiment with DLD1 NRF2-GOF [2] and in the experiment on DLD1 NRF2-WT [3] was more than 10 µM each time. Moreover, the drug sensitivity score was found to be 8 in the experiment on DLD1 NRF2-GOF [4], 2.4 with DLD1 NRF2-WT [5] and 33.6 with DLD1 NRF2-WT [6].
As for `CC[C@H](C)C(=O)O[C@H]1C[C@H](O)C=C2C=C[C@H](C)[C@H](CC[C@@H](O)C[C@@H](O)CC(=O)O)[C@H]21` [Pravastatin], the EC50 viability with DLD1 NRF2-WT [1] was more than 10 µM. Also, the TC50 cytotoxicity with DLD1 NRF2-GOF [2] and in the experiment with DLD1 NRF2-WT [3] was more than 10 µM throughout. Further, the drug sensitivity score with DLD1 NRF2-GOF [4], in the experiment with DLD1 NRF2-WT [5] and in the experiment with DLD1 NRF2-WT [6] was 0 each time.
